From publication PMC8851638 (ACS Omega, 2022)
In brackets after ≈: the same amount, converted by molar mass. Several values for one entry are separate records, joined by “and”; a condition that tells them apart may be missing. Equal entries are not always repeated.

What was measured:
[1] = system: C. albicans100 (MDR00100); experiment: Agar well-diffusion antimicrobial sensitivity assay; type: cell-based, Candida albicans; settings: Candida albicans, read-out: Inhibition Zone (IZ)
[2] = system: C. albicans200 (MDR00200); experiment: as above; type: cell-based, Candida albicans; settings: Candida albicans, read-out: Inhibition Zone (IZ)
[3] = system: C. albicans100 (MDR00100); experiment: MIC and MFC by broth microdilution; type: cell-based, Candida albicans
[4] = system: C. albicans200 (MDR00200); experiment: MIC and MFC by broth microdilution; type: cell-based, Candida albicans
C. albicans100 [5] = experiment: Single-step resistance selection; type: cell-based, Candida albicans; settings: 4 × MIC, 48 h
C. albicans200 [6] = experiment: Single-step resistance selection; type: cell-based, Candida albicans; settings: 4 × MIC, 48 h
RBCs = experiment: Hemolytic assay; type: cell-based; settings: human RBCs; compounds 1.0 mg/mL; Triton X-100 0.1% v/v; 37 °C, 35 min
C. albicans100 [7] = experiment: Time-kill kinetic assay; type: cell-based, Candida albicans
C. albicans200 [8] = experiment: Time-kill kinetic assay; type: cell-based, Candida albicans
[9] = system: clinical pathogenic isolates; experiment: Single-step resistance selection, whole panel; type: cell-based; settings: 4 × MIC

`CC(=O)N1CCN(c2ccc(OCC3COC(Cn4ccnc4)(c4ccc(Cl)cc4Cl)O3)cc2)CC1` (stereo not shown) [KCA, Ketoconazole, reference compound] was tested, and the zone of inhibition at 100000 µg/mL [1] was 21 ± 0.23 mm, the zone of inhibition at 100000 µg/mL [2] was 24 ± 0.54 mm and the “MIC (mean ± SEM)” value ([3]; C. albicans100, broth microdilution) was 0.49 ± 0.3 µg/mL (≈ 0.922 µM). For the same molecule, the MFC/MIC ([3]; C. albicans100, ratio in parentheses) was 1, the MIC ([3]; Candida albicans, read-out: MIC (mean ± SEM), C. albicans100, broth microdilution) was 0.49 µg/mL (≈ 0.922 µM) and the MFC/MIC ([4]; C. albicans200, ratio in parentheses) was 0.5. For the same molecule, the MIC ([4]; Candida albicans, read-out: MIC (mean ± SEM), C. albicans200, broth microdilution) was 0.45 ± 0.3 µg/mL (≈ 0.847 µM), the “Single-step resistance frequency (mutation frequency)” value (C. albicans100 [5]) was 3.42 × 10^–9 and the “Single-step resistance frequency (mutation frequency)” value (C. albicans200 [6]) was 3.19 × 10^–8. For the same molecule, the “%lysis of RBCs” value (RBCs) was 15.38% and 15.38 ± 0.32%, the “time of reduction in the colony-forming units” value (C. albicans100 [7]) was 48 h and the “time of reduction in the colony-forming units” value (C. albicans200 [8]) was 48 h. For the same molecule, the “mutation frequency, range over panel” value [9] was 3.19 × 10^–8 to 3.42 × 10^–9.
